According to patent EP1296995B1, “3'-PRODRUGS OF 2'-DEOXY-BETA-L-NUCLEOSIDES” (priority 2000, dated 2001):

Tests used:
HepG2 cells = test: in vitro
Excerpt: (§1) These studies included analysis of lactic acid production, mtDNA content and determination of changes in morphology (e.g., loss of cristae, matrix dissolution and swelling, and lipid droplet formation) of mitochondrial ultrastructure.

in vitro [1] = conditions: human, hepg2 cells
Excerpt: as §1

in vitro [2] = conditions: human, bone marrow cfu-gm
in vitro [3] = conditions: human, bone marrow bfu-e

With `Cc1cn([C@H]2C[C@H](N=[N+]=[N-])[C@@H](CO)O2)c(=O)[nH]c1=O` [ZDV, zidovudine] the “Lipid Droplet Formation” value (HepG2 cells) was “negative”, the “increase of lactic acid production compared to vehicle control” value (HepG2 cells; human) was 100% and the activity (in vitro [1]) was 239 ± 34%. For the same molecule, the activity at 336 h (in vitro [1]) was 119%, the IC50 (in vitro [2]) was 1800 nM and the IC50 (in vitro [3]) was 700 nM.
